Results as given in article PMC4141478 (Nature communications, 2014).

Target: T1, Full length EhIP6KA (Entamoeba histolytica, UniProt C4M387)
T1 sequence (C4M387 1-270): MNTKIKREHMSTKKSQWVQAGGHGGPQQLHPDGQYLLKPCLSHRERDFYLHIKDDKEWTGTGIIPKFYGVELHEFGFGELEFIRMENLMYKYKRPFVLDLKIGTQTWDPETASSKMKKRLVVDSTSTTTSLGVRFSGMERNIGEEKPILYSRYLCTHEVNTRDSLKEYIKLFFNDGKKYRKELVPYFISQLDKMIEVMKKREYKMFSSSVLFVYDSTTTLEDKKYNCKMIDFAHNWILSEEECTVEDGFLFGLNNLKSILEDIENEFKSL
Test: NMR of reaction product
Format: biochemical
Settings: 3 mM ATP, 2 mM MgCl2, pH 7.0, 37 then 25 C; product 5-InsP7

## O=P(O)(O)O[C@H]1[C@H](OP(=O)(O)O)[C@@H](OP(=O)(O)O)[C@H](OP(=O)(O)O)[C@@H](OP(=O)(O)O)[C@H]1OP(=O)(O)O [InsP6]
  NMR of reaction product: EhIP6KA, like mammalian IP6Ks, converts InsP6 to 5-InsP7
